Data taken from ChEMBL document CHEMBL4507303, “Data for DCP probe TP-004” (2021).

Assays:
[1] = target: Phosphatidylinositol 5-phosphate 4-kinase type-2 beta (Homo sapiens) (UniProt P78356); details: Compound concentration 1000.0 nM
[2] = target: Atypical kinase COQ8B, mitochondrial (Homo sapiens) (UniProt Q96D53); details: Compound concentration 1000.0 nM
[3] = target: Sodium-dependent dopamine transporter (Homo sapiens, UniProt Q01959); assay: GPCRScan assay: inhibition of DAT; parameters: radioligand conc. used [nm] 3.6 – 16.0, parental cells stable HEK
[4] = target: Platelet-derived growth factor receptor beta (Homo sapiens) (UniProt P09619); details: Compound concentration 1000.0 nM
[5] = target: Serine/threonine-protein kinase Nek9 (Homo sapiens) (UniProt Q8TD19); details: Compound concentration 1000.0 nM
[6] = target: Calcium/calmodulin-dependent protein kinase type II subunit gamma (Homo sapiens) (UniProt Q13555); details: Compound concentration 1000.0 nM
[7] = target: Dual specificity protein kinase TTK (Homo sapiens) (UniProt P33981); details: Compound concentration 1000.0 nM
[8] = target: Serine/threonine-protein kinase VRK2 (Homo sapiens) (UniProt Q86Y07); details: Compound concentration 1000.0 nM
[9] = target: Serine/threonine-protein kinase MAK (Homo sapiens) (UniProt P20794); details: Compound concentration 1000.0 nM
[10] = target: Calcium/calmodulin-dependent protein kinase kinase 1 (Homo sapiens) (UniProt Q8N5S9); details: Compound concentration 1000.0 nM
[11] = target: Serine/threonine-protein kinase WNK4 (Homo sapiens) (UniProt Q96J92); details: Compound concentration 1000.0 nM
[12] = target: Alpha-2A adrenergic receptor (Homo sapiens) (UniProt P08913); details: Compound concentration 10.0 uM
[13] = target: 5'-AMP-activated protein kinase catalytic subunit alpha-1 (Homo sapiens) (UniProt Q13131); details: Compound concentration 1000.0 nM
[14] = target: Muscle, skeletal receptor tyrosine-protein kinase (Homo sapiens) (UniProt O15146); details: Compound concentration 1000.0 nM
[15] = target: Cyclin-dependent kinase 2 homolog (Plasmodium falciparum (isolate 3D7)) (UniProt P61075); details: Compound concentration 1000.0 nM
[16] = target: Dual specificity mitogen-activated protein kinase kinase 2 (Homo sapiens) (UniProt P36507); details: Compound concentration 1000.0 nM
[17] = target: cGMP-dependent protein kinase 2 (Homo sapiens) (UniProt Q13237); details: Compound concentration 1000.0 nM
[18] = target: Macrophage colony-stimulating factor 1 receptor (Homo sapiens) (UniProt P07333); details: Compound concentration 1000.0 nM
[19] = target: Mitogen-activated protein kinase kinase kinase kinase 2 (Homo sapiens) (UniProt Q12851); details: Compound concentration 1000.0 nM
[20] = target: Myosin light chain kinase 2, skeletal/cardiac muscle (Homo sapiens) (UniProt Q9H1R3); details: Compound concentration 1000.0 nM
[21] = target: Serine/threonine-protein kinase PAK 3 (Homo sapiens) (UniProt O75914); details: Compound concentration 1000.0 nM
[22] = target: Receptor-interacting serine/threonine-protein kinase 1 (Homo sapiens) (UniProt Q13546); details: Compound concentration 1000.0 nM
[23] = target: Maternal embryonic leucine zipper kinase (Homo sapiens) (UniProt Q14680); details: Compound concentration 1000.0 nM
[24] = target: cAMP-dependent protein kinase catalytic subunit PRKX (Homo sapiens) (UniProt P51817); details: Compound concentration 1000.0 nM
[25] = target: Mitogen-activated protein kinase kinase kinase 19 (Homo sapiens) (UniProt Q56UN5); details: Compound concentration 1000.0 nM
[26] = target: Dual specificity protein kinase CLK2 (Homo sapiens) (UniProt P49760); details: Compound concentration 1000.0 nM
[27] = target: Serine/threonine-protein kinase PLK3 (Homo sapiens) (UniProt Q9H4B4); details: Compound concentration 1000.0 nM
[28] = target: SRSF protein kinase 3 (Homo sapiens) (UniProt Q9UPE1); details: Compound concentration 1000.0 nM
[29] = target: Casein kinase I isoform gamma-1 (Homo sapiens) (UniProt Q9HCP0); details: Compound concentration 1000.0 nM
[30] = target: Interleukin-1 receptor-associated kinase 3 (Homo sapiens) (UniProt Q9Y616); details: Compound concentration 1000.0 nM
[31] = target: Serine/threonine-protein kinase Nek10 (Homo sapiens) (UniProt Q6ZWH5); details: Compound concentration 1000.0 nM
[32] = target: Tyrosine-protein kinase Blk (Homo sapiens) (UniProt P51451); details: Compound concentration 1000.0 nM
[33] = target: Cyclin-dependent kinase 13 (Homo sapiens) (UniProt Q14004); details: Compound concentration 1000.0 nM
[34] = target: Protein kinase C eta type (Homo sapiens) (UniProt P24723); details: Compound concentration 1000.0 nM
[35] = target: Serine/threonine-protein kinase 26 (Homo sapiens) (UniProt Q9P289); details: Compound concentration 1000.0 nM
[36] = target: Misshapen-like kinase 1 (Homo sapiens) (UniProt Q8N4C8); details: Compound concentration 1000.0 nM
[37] = target: Mitogen-activated protein kinase kinase kinase kinase 1 (Homo sapiens) (UniProt Q92918); details: Compound concentration 1000.0 nM
[38] = target: Cyclin-dependent kinase 18 (Homo sapiens) (UniProt Q07002); details: Compound concentration 1000.0 nM
[39] = system: Tyrosine-protein kinase ABL1 (Homo sapiens), P00519 [Q252H]; details: Compound concentration 1000.0 nM
[40] = target: Cyclin-dependent kinase 19 (Homo sapiens) (UniProt Q9BWU1); details: Compound concentration 1000.0 nM
[41] = target: Ribosomal protein S6 kinase alpha-6 (Homo sapiens) (UniProt Q9UK32); details: Compound concentration 1000.0 nM
[42] = target: Aurora kinase B (Homo sapiens) (UniProt Q96GD4); details: Compound concentration 1000.0 nM
[43] = target: Ephrin type-A receptor 2 (Homo sapiens) (UniProt P29317); details: Compound concentration 1000.0 nM
[44] = target: Protein kinase C delta type (Homo sapiens) (UniProt Q05655); details: Compound concentration 1000.0 nM
[45] = target: Fibroblast growth factor receptor 3 (Homo sapiens) (UniProt P22607); details: Compound concentration 1000.0 nM

Sodium-dependent dopamine transporter, sequence (Q01959 whole entry): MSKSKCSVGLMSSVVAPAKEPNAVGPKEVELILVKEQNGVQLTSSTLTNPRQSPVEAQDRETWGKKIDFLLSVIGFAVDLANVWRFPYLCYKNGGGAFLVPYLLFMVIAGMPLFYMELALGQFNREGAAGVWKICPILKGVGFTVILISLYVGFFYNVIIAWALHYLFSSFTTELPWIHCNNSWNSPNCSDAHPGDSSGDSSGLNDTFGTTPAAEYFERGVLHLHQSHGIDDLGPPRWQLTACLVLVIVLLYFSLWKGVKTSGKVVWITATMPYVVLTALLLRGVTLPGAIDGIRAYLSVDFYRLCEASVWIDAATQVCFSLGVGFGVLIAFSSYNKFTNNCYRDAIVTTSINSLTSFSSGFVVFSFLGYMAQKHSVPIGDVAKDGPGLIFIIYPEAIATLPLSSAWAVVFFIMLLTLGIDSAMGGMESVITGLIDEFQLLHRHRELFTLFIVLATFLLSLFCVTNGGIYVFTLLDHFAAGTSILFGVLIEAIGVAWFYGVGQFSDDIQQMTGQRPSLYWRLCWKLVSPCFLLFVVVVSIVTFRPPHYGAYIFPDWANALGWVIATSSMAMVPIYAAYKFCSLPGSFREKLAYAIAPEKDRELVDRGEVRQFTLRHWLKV
Dual specificity protein kinase TTK (Homo sapiens), sequence (P33981 whole entry): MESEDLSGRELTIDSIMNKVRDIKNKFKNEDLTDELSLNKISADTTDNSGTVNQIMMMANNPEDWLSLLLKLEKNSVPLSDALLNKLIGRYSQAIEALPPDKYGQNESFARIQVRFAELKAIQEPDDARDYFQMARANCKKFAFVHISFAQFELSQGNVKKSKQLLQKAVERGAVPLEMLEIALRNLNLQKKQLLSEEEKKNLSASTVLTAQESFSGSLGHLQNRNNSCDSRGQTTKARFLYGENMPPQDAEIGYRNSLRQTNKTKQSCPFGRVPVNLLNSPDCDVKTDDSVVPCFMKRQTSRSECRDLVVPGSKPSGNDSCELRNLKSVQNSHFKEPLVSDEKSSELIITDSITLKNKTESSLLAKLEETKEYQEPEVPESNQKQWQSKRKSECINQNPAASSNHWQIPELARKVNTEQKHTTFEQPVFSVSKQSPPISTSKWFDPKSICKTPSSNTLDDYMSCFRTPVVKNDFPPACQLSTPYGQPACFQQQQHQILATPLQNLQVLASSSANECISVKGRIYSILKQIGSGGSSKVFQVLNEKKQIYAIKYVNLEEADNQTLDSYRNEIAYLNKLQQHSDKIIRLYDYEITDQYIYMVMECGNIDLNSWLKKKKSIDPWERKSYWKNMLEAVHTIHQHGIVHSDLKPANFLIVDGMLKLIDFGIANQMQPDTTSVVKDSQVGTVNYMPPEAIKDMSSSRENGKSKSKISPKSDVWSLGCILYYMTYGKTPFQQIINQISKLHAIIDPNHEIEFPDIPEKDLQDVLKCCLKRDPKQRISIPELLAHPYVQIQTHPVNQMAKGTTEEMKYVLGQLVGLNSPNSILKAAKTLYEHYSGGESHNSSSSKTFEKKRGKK
Atypical kinase COQ8B, mitochondrial (Homo sapiens), sequence (Q96D53 whole entry): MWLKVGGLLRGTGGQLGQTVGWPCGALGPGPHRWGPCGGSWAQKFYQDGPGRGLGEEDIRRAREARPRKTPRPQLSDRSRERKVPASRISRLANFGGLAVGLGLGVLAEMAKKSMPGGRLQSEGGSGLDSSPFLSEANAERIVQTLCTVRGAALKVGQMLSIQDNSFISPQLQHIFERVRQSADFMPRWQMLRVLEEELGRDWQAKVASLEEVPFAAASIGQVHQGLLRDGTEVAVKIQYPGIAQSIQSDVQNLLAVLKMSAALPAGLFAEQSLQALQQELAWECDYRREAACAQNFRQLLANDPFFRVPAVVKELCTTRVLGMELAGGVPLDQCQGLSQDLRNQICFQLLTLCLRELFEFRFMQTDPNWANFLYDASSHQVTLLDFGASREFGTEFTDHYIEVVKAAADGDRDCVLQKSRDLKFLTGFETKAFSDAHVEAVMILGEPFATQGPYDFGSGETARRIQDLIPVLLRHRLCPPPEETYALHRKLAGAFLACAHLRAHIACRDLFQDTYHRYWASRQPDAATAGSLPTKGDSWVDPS
Maternal embryonic leucine zipper kinase (Homo sapiens), sequence (Q14680 whole entry, looked up): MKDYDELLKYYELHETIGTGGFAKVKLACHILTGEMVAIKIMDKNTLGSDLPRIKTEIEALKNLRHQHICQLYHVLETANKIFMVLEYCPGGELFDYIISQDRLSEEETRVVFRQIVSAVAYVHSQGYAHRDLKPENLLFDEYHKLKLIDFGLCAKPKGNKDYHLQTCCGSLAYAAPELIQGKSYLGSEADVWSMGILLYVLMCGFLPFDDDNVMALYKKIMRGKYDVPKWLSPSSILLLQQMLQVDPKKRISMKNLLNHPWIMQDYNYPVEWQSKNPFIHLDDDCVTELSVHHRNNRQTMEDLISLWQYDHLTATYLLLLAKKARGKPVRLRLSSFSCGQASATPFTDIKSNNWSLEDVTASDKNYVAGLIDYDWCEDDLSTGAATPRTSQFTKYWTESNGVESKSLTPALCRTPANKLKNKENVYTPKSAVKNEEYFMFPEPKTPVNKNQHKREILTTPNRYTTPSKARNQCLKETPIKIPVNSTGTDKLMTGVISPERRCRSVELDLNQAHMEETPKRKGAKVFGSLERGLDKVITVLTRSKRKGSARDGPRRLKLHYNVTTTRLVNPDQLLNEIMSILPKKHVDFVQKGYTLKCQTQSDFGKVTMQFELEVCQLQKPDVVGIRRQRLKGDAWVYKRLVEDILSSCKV
Ribosomal protein S6 kinase alpha-6 (Homo sapiens), sequence (Q9UK32 whole entry): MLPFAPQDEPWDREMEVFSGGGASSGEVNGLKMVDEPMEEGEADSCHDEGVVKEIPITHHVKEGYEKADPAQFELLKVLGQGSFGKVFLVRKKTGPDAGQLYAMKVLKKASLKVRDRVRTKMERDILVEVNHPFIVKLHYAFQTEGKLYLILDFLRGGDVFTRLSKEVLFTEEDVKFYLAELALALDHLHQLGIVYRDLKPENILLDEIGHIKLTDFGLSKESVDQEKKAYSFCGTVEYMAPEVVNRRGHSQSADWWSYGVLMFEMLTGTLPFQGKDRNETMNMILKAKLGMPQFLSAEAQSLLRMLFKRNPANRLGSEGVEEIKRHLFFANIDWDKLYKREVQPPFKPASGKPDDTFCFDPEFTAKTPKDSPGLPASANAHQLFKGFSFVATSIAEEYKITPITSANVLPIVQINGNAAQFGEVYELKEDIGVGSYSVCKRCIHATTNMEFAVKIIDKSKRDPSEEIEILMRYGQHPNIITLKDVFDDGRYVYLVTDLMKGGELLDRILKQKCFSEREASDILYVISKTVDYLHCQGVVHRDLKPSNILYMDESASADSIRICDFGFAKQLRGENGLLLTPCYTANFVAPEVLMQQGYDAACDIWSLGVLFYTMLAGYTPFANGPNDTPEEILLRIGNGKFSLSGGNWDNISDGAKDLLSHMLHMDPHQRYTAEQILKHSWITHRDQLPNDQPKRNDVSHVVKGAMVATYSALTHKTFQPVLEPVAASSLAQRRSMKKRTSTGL
Platelet-derived growth factor receptor beta (Homo sapiens), sequence (P09619 whole entry): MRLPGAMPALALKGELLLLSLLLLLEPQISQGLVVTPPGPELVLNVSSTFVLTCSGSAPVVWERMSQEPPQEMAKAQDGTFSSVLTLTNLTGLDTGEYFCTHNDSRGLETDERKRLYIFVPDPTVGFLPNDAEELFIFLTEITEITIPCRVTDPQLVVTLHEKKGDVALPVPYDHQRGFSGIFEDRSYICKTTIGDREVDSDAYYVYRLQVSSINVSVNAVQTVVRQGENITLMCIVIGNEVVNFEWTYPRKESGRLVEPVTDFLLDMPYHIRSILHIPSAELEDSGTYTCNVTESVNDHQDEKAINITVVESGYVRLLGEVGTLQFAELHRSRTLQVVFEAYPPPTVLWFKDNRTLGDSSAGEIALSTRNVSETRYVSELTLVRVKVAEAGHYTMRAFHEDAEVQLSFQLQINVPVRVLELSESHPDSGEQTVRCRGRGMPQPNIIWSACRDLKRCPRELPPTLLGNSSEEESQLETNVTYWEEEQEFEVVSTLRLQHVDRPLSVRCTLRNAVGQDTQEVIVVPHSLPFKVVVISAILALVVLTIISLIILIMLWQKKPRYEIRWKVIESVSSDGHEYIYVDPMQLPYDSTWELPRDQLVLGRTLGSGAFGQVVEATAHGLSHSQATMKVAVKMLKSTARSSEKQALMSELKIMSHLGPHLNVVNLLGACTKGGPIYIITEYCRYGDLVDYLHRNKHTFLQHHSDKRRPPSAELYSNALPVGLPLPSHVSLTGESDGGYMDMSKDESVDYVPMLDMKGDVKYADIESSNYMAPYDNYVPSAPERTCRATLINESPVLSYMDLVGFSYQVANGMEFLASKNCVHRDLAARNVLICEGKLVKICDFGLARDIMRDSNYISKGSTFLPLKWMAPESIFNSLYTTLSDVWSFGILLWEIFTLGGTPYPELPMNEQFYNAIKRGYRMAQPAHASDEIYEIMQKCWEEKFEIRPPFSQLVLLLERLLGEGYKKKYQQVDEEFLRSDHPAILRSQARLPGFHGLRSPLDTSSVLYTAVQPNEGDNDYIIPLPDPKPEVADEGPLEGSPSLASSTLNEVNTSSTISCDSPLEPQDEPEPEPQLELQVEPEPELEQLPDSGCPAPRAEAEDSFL
Dual specificity mitogen-activated protein kinase kinase 2 (Homo sapiens), sequence (P36507 whole entry): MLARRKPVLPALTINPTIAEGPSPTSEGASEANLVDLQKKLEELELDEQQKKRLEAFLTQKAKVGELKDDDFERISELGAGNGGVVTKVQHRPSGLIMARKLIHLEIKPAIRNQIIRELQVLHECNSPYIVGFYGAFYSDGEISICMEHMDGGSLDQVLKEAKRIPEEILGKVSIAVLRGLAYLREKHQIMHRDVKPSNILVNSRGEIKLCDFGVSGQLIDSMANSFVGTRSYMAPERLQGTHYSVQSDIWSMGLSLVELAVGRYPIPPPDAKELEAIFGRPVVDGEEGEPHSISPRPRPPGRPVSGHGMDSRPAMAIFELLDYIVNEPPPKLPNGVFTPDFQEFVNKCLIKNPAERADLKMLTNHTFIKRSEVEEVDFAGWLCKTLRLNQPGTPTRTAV

## Cc1nc(N2CC[C@@H](O)C2)ncc1-c1cc(C(F)(F)F)cc2[nH]ncc12 [TP-004]
[1]
  residual activity: 100%
[2]
  residual activity: 100%
[3]; read-out: Ki
  Ki: 1680 nM
[3]; read-out: pKi (converted)
  Ki: 1580 nM
[4]
  residual activity: 58%
[5]
  residual activity: 96%
[6]
  residual activity: 100%
[7]
  residual activity: 100%
[8]
  residual activity: 86%
[9]
  residual activity: 100%
[10]
  residual activity: 100%
[11]
  residual activity: 95%
[12]
  inhibition: 10.6%
[13]
  residual activity: 89%
[14]
  residual activity: 85%
[15]
  residual activity: 61%
[16]
  residual activity: 74%
[17]
  residual activity: 100%
[18]
  residual activity: 89%
[19]
  residual activity: 76%
[20]
  residual activity: 100%
[21]
  residual activity: 72%
[22]
  residual activity: 100%
[23]
  residual activity: 100%
[24]
  residual activity: 97%
[25]
  residual activity: 67%
[26]
  residual activity: 100%
[27]
  residual activity: 78%
[28]
  residual activity: 84%
[29]
  residual activity: 78%
[30]
  residual activity: 85%
[31]
  residual activity: 96%
[32]
  residual activity: 100%
[33]
  residual activity: 90%
[34]
  residual activity: 94%
[35]
  residual activity: 59%
[36]
  residual activity: 61%
[37]
  residual activity: 100%
[38]
  residual activity: 100%
[39]
  residual activity: 91%
[40]
  residual activity: 100%
[41]
  residual activity: 51%
[42]
  residual activity: 100%
[43]
  residual activity: 100%
[44]
  residual activity: 94%
[45]
  residual activity: 100%
